Reference: US11021545B2, “Multimodal cancer therapy comprising chimeric viral/nonviral nanoparticles and anticancer agents” (The Regents of the University of California, priority 2018, dated 2021)

Test system: BCR-ABL+ FL 5.12 p190 cells
Test: cells
Conditions: Mus musculus, FL5.12, read-out: IC50 of dasatinib without ChNPs
Description: Viability was tested three days after delivery. […] After 24 h, PBS, BIM AAV alone, MCL-1 siRNA alone, mixture of BIM AAV and siRNA, and various ChNPs (Null/Scr, Null/MCL-1, BIM/Scr, BIM/MCL-1 ChNPs) are added to the cells at different BIM AAV and MCL-1 siRNA concentrations. To measure cell viability, the cells maintained with fresh media everyday are pelleted by centrifugation (2000 rpm, 5 min, 4° C.) and resuspended in fresh media. The cells in 90 μL medium then are transferred into a 96-well plate where MTT (5 mg/mL in 10 μL PBS) is subsequently added. After 4 h of incubation at 37° C., the well plate is centrifuged at 2000 rpm and 4° C. for 5 min, and the media is replaced by 100 μL DMSO per well. The relative cell viability is quantified by comparing absorptions at 570 nm using a microplate reader (Synergy H1, Biotek), based on the absorption in the wells containing nontreated cells.

Cc1nc(Nc2ncc(C(=O)Nc3c(C)cccc3Cl)s2)cc(N2CCN(CCO)CC2)n1 [dasatinib] was tested, and the IC50 was 1 nM.
